Patent US20140248212A1, “NON-IMMUNOGENIC POSITRON EMISSION TOMOGRAPHY REPORTER GENE SYSTEMS” (THE REGENTS OF THE UNIVERSITY OF CALIFORNIA, priority 2011, published 2014)
Entries after “also recorded” stand apart in the source; their conditions may differ.

What was measured:
[1] = tested on: TK2-N93D-expressing L1210 cells; assay: L-18F-FMAU uptake assay, transduced L1210 cells (TK2-N93D); assay type: cell-based, murine
Excerpt: To overcome the negative feedback limitation of TK2, a point mutation-N93D, was engineered. The work done by Piskur and colleagues on the structurally related Drosophila melanogaster deoxyribonucleoside kinase (see, e.g. Welin, M., et al. FEBS J 272:3733-3742, 2005) led one to predict that the N93D mutation would reduce the feedback inhibition of TK2 by dTTP. This prediction was confirmed by a comparison between the wild type (WT) and the TK2-N93D mutant in a kinase assay in which increasing concentrations of dTTP were added to inhibit TK2 enzymatic activity (FIG. 8B). We then determined whether the enhanced resistance to feedback inhibition translates into improved TK2-N93D catalytic activity towards the L-[^18F]FMAU substrate. The murine leukemic cell line L1210 was engineered to express the WT and mutated PRG. PRG-expressing L1210 cell lines were sorted to similar levels of gene expression, using enhanced yellow fluorescent protein (eYFP) as a co-linked fluorescent marker. […] It was also examined whether the expression of TK2-N93D had detrimental effects on cellular physiology (criterion 4 for PRGs). […] In contrast, sr39tk overexpression induced a 4-fold increase in dTTP pools (FIG. 9C). […] These findings provide evidence that the utility of sr39tk is limited not only by its immunogenicity but also by its effects on normal cellular physiology.
The L1210 cell line (see, e.g. Jordheim, L. P., et al. (2004) Clin. Cancer Res. 10, 5614-5621) was a gift. Cells were cultured at 5% v/v CO2 and 37° C. in RPMI supplemented with 5% v/v FCS. […]
L1210 cells transduced with the indicated PET reporter genes (L1210-PRG) were seeded at a density of 500,000 cells/well in 24-well plates. […] Radioactivity was measured using a gamma counter.

[2] = tested on: L1210 tumors expressing TK2-N93D/L109F; assay: microPET/CT of SCID mice bearing L1210-PRG tumors (TK2-N93D/L109F); assay type: in vivo
Procedure: (§1) Animal studies were approved and carried out according to specific guidelines. C57/BL6 mice were injected with the indicated probe and underwent micro-PET/CT analyses at 1- and 3-h post probe injection (Inveon, Siemens Medical Solutions USA Inc.; microCAT; Imtek Inc.). For tumor imaging studies, SCID mice were injected subcutaneously on day −7 in the right and left flanks with 1×10^6 L1210-PRG-expressing cells in 50% v/v phosphate-buffered saline and 50% v/v Matrigel™ (BD Biosciences). For imaging experiments, mice were kept warm and under gas anesthesia (2% v/v isoflurane) and were injected intravenously with 200 μCi of ^18F-labeled probes. A 3-h interval was allowed between probe administration and microPET/CT scanning Static microPET images were acquired for 600 s. Image data were evaluated in three-dimensional histograms and reconstructed with a zoom factor of 2.1 using three-dimensional ordered set expectation maximization (OSEM) with 2 iterations followed by MAP (maximum a posteriori) reconstruction with 18 iterations (beta=0.1). Images were analyzed using OsiriX Imaging Software Version 3.8.
Mice implanted with L1210 cells expressing TK2-based PRGs were scanned by microPET/CT using L-^18F-FMAU (FIG. 30A). For comparison, mice implanted with L1210 cells expressing HSV1-sr39tk were scanned by microPET/CT using ^18F-FHBG (FIG. 30B).

[3] = tested on: L1210 tumors expressing TK2-N93D; assay: microPET/CT of SCID mice bearing L1210-PRG tumors (TK2-N93D); assay type: in vivo; conditions: for in vivo L-18F-FMAU uptake compared with WT TK2-expressing tumors: 3 h post-injection
Excerpt: To compare TK2, TK2-N93D and HSV1-sr39tk in vivo, PRG-expressing L1210 cells were implanted subcutaneously in SCID mice that were then scanned with L-[^18F]FMAU (FIG. 10A) and [^18F]FHBG (FIG. 10C) on consecutive days. […] Signals obtained with sr39tk were slightly higher than those obtained with the human TK2-N93D PRG (the difference was not statistically significant). […] L-[^18F]FMAU accumulation in TK2-N93D transduced tumors was ˜20 times higher than the accumulation in tumors transduced with the control (eYFP only) vector. While this ratio is higher than the 6.67 ratio reported for WT TK2 as a PRG with D-[^18F]FEAU as the PRP (see, e.g. Ponomarev, V., et al. J Nucl Med 48:819-826, 2007), the HSV1-sr39tk/[^18F]FHBG combination still outperforms the TK2-N93D/L-[^18F]FMAU combination by ˜2-fold. The significance of the 2-fold difference for the sensitivity of the new TK2-N93D PRG can be further investigated in the animal models discussed below (see, e.g. Gerth, M. L., et al. Biochem Biophys Res Commun 354:802-807, 2007; Liu, L., et al. Nucleic Acids Res 37:4472-4481, 2009; Iyidogan, P., et al. Biochemistry 47:4711-4720, 2008; Lutz, S., et al. Chimia (Aarau) 63:737-744 2009).
as §1

SMILES: Cc1cn([C@H]2O[C@@H](CO)[C@H](O)[C@H]2[18F])c(=O)[nH]c1=O [L-^18F-FMAU, 2′-deoxy-2′-^18F-5-methyl-1-β-L-arabinofuranosyluracil]
- increase in L-18F-FMAU uptake relative to cells expressing WT TK2 ([1]; 1 h uptake, FIG. 27C): 1.5 fold
- L-[18F]FMAU accumulation compared to WT TK2 transduced cells ([1]; FIG. 8C): increased accumulation; also recorded: increased uptake
- decrease of L-18F-FMAU uptake ([1]; in the presence of 5 μM D-dT): 75%
- probe uptake in L1210 tumors ([2]; L-18F-FMAU, 3 h post-injection): 19.9±1.5 % injected dose/g
- L-18F-FMAU uptake, higher than that of TK2-N93D-expressing cells ([2]; in vivo, FIG. 30C): 2.6 fold
- in vivo L-18F-FMAU uptake compared with WT TK2-expressing tumors [3]: nearly double
- in vivo L-18F-FMAU uptake compared with WT TK2-expressing tumors ([3]; listed as 18F-L-FMAU): two-fold increase
- in vivo L-18F-FMAU uptake compared with WT TK2-expressing tumors ([3]; listed as L-[^18F]FMAU): improved accumulation
- L-[18F]FMAU accumulation relative to tumors transduced with control (eYFP only) vector ([3]; 3 hrs post-injection): ~20 times
